Here are results for three molecules from publication PMC12933331, “A Cryptic Pocket Allosterically Modulates Oligosaccharide Binding to DC-SIGN” (JACS Au, 2026).

The target of experiment [1] is T1, DC-SIGN ECD M270F (Homo sapiens, UniProt Q9NNX6, M270F).
T1 construct: acids 64 -404 of DC -SIGN; made in house
T1 sequence (Q9NNX6 64-404 M270F): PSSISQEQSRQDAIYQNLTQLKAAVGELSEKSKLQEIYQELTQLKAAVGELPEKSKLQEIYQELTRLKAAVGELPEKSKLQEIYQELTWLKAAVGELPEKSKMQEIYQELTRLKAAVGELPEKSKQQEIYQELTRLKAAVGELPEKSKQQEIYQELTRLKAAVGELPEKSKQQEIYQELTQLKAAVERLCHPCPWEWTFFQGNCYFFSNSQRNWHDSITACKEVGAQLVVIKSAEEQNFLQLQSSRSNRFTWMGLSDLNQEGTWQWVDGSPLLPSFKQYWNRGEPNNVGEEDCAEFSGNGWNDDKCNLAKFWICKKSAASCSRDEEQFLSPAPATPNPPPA
As to the kind of experiment: Plate-based horseradish peroxidase assay. The class given is binding. To be noted: constant HRP concentration (1 µg mL-1); read-out: EC50 (mean ± SD), CaCl2 titration. How it is done: (§1) chromatography. Purified protein was dialyzed against 25 mM HEPES, 150 mM NaCl, 10 mM CaCl2, pH 7.4, concentrated using a centrifugal spin filter, snap frozen and then stored at -80°C. […]
(§2) Plate-based horseradish peroxidase assay
(§3) General remarks. Unless stated otherwise, all reagents and buffers were obtained from Sigma Aldrich or Carl Roth. Measurements were done on a Enspire Multimode Plate Reader (PerkinElmer). GraphPad Prism was used for all data processing and analysis.
(§4) CaCl2 titration. 100 µg mL-1 DC-SIGN ECD were immobilized in immobilization buffer (25 mM HEPES, 150 mM NaCl, 25 mM CaCl 2, pH 7.4) overnight at 4°C on transparent Nunc Maxisorp 96-well plates (Thermo Fisher). Protein solution was removed, and plates were washed three times with immobilization buffer and then blocked for 2 hours at 4°C with blocking buffer (25 mM HEPES, 150 mM NaCl, 25 mM CaCl 2, 2% BSA, 0.01% Tween -20). Plates were washed twice with 25 mM HEPES, 150 mM NaCl, 5 mM EDTA, pH 7.4 and twice with 25 mM HEPES, 150 mM NaCl, pH 7.4 to remove residual Ca 2+. To titrate Ca2+, CaCl2 in 25 mM HEPES, 150 mM NaCl, pH 7.4 was serially diluted on the plate at a constant HRP concentration of 1 µg mL-1 and then incubated at RT for 2 hours. Following incubation, plates were washed three times with 25 mM HEPES, 150 mM NaCl, pH 7.4 and bound HRP was detected using a TMB substrate kit (Thermo Fisher) and 0.18 M H2SO4 according to manufacturer’s instructions. Absorption was […]
(§5) HRP titration. Immobilization and blocking were done as described above. After blocking, plates were washed three times with immobilization buffer. HRP in immobilization buffer was serially diluted on the plate at a constant concentration CaCl2 concentration of 25 mM and then incubated […]
(§6) at RT for 2 hours. Following incubation, plates were washed three times with immobilization buffer and HRP was detected as described above.
(§7) Immobilization and blocking were done as described above. After blocking, plates were washed three times with immobilization buffer. Mannose in immobilization buffer containing 1 µg mL-1 HRP was serially diluted on the plate and then incubated at RT for 2 hours.
(§8) Following incubation, plates were washed three times with immobilization buffer and HRP was detected as described above.
(§9) All conditions were measured in technical triplicates, averaged and normalized to the control well […]
(§10) IC50 and EC50 values and hill […]
(§11) slopes (nH) were obtained in a four-parameter fit according to equation (1).
(§12) Y = bottom + top − bottom (1)
(§13) With bottom and top representing the minimal and maximal response plateaus, respectively, Y as the observed response and X the logarithmic concentration of the ligand . […]
(§14) Biosynth. Spectra were processed in TopSpin 4.2.0 and data analysis was performed using CCPN Analysis 3.2.0 for 2D spectra and in MestreNova for 1D spectra.2 Further analysis was done using GraphPad Prism and in-house python scripts.

The target in experiment [2] is T2, DC-SIGN ECD wildtype (Homo sapiens, UniProt Q9NNX6).
T2 construct: acids 64 -404 of DC -SIGN; made in house
T2 sequence (Q9NNX6 64-404): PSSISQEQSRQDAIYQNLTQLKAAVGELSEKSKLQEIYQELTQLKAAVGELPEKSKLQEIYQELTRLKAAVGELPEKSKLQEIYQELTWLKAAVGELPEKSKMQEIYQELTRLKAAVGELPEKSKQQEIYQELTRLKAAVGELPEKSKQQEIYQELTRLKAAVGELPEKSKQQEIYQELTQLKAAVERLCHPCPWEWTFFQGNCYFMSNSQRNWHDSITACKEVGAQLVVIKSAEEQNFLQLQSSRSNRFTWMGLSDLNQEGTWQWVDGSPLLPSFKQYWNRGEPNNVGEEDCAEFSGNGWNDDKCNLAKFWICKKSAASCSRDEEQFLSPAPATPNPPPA
Kind of experiment: Plate-based horseradish peroxidase assay. The format is binding. To be noted: constant HRP concentration (1 µg mL-1); read-out: EC50 (mean ± SD), CaCl2 titration. The procedure:
as §1, §2, §3, §4, §5, §6, §7, §8, §9, §10, §11, §12, §13, §14

For experiment [3], the target named is T3, DC-SIGN ECD T314A (Homo sapiens, UniProt Q9NNX6, T314A).
T3 construct: acids 64 -404 of DC -SIGN; made in house
T3 sequence (Q9NNX6 64-404 T314A): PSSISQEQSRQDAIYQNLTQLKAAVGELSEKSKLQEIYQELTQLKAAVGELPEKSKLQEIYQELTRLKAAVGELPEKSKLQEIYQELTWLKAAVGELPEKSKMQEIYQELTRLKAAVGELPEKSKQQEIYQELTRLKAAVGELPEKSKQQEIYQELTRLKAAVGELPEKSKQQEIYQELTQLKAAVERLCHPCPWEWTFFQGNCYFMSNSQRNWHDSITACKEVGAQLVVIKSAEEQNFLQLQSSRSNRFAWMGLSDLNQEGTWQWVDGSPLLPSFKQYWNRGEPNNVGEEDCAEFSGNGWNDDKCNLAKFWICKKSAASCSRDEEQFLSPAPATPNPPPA
As to the kind of experiment: Plate-based horseradish peroxidase assay. The format is binding. The settings on record: constant HRP concentration (1 µg mL-1); read-out: EC50 (mean ± SD), CaCl2 titration.
Method: Immobilization and blocking were done as described above. After blocking, plates were washed three times with immobilization buffer. containing 1 µg mL-1 HRP was serially diluted on the plate and then incubated at RT for 2 hours.

Experiment [4] deals with T1, DC-SIGN ECD M270F. As to the kind of experiment: 19F R2-filtered NMR reporter assay, CaCl2 titration. The settings on record: binding of 0.1 mM ManNAcF3 reporter, R2,obs. How it is done:
(§15) 19F R2-filtered NMR reporter displacement assay. The 19F R2-filtered NMR reporter displacement assay was adjusted for CaCl2 titrations with DC-SIGN ECD as previously described.1 Apparent transverse relaxation rates R2,obs were obtained using the CPMG pulse sequence with a relaxation delay d1 of 2.0 s, acquisition time tacq of 0.8 s and a CPMG frequency νCPMG of 500 Hz.
(§16) DC-SIGN ECD was dialyzed four times against 25 mM HEPES, 150 mM NaCl (pH 7.4) to remove Ca2+ prior to measurements. Samples contained 25 μM DC-SIGN ECD in 25 mM HEPES, 150 mM NaCl (pH 7.4) supplemented with 10% D2O and 0.1 mM of the ManNAcF3 reporter molecule.
(§17) TFA at a concentration of 0.1 mM served as an internal reference. 512 scans were recorded to ensure sufficient signal to noise ratios. R2,obs values were obtained by fitting equation 5 to integrals I of the 19F resonance of the reporter at different relaxation times T with I0 as integral at T = 0 s. […]
Background: In a reporter assay the amount or activity of a reporter protein is the signal.

Experiment [5] deals with T3, DC-SIGN ECD T314A. The description is as above. To be noted: binding of 0.1 mM ManNAcF3 reporter, R2,obs. How it is done: as §15, §16, §17
For experiment [6], the target named is T2, DC-SIGN ECD wildtype. The experiment is described as above. To be noted: binding of 0.1 mM ManNAcF3 reporter, R2,obs. The procedure:
as §15, §16, §17

Experiment [7] concerns the target T4, DC-SIGN CRD M270F (Homo sapiens, UniProt Q9NNX6, M270F).
T4 construct: acids 253-404 of DC-SIGN; His-tag (N); made in house
T4 sequence (Q9NNX6 253-404 M270F): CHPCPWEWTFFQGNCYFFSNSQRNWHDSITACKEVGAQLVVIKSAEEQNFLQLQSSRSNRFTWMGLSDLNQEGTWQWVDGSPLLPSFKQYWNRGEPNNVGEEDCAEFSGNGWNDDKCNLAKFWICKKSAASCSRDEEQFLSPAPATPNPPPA
Kind of experiment: 1H-15N HSQC NMR titration (CSP fitting). The class given is binding. How it is done: (§18) 1H-15N HSQC NMR. 1H-15N HSQC NMR spectra were collected with 256 increments in the nitrogen and 24 scans per increment and 2048 points in the direct dimension. The relaxation delay d1 was set to 1.0 s. The W5 WATERGATE pulse sequence was used for solvent suppression.3, 4 Experiments were performed at a CRD concentration of 200 μM in 20 mM MES, 40 mM NaCl, 10 mM CaCl2 (pH 6.0) supplemented with 10% D 2O and, if applicable, varying concentrations of ligands. Samples of apo DC -SIGN CRD were prepared as described for 1H-13C HSQC NMR experiments. A previously published resonance assignment of DC-SIGN CRD was transferred to the nearest neighbor in a reference spectrum recorded without ligand.5 Unassigned, overlapping or disappearing peaks were not assigned.
(§19) CSPs induced by mutations or ligands were calculated as previously described according to […]
(§20) The empirical weighing factor a was set to 0.15 for all calculations.
(§21) Dissociation constants (K Ds) were determined in titration experiments at five ligand concentratio ns […]
(§22) in the fast exchange regime were used for the fitting procedure via equation 4 in a global two - […]
(§23) with CSP max corresponding to the CSP values upon saturation and the bound protein fraction p b […]
(§24) CHESPA was performed as previously described .7 The chemical shift vector between apo and holo wildtype DC -SIGN CRD was used as reference perturbation to calculate the vector product to […]

The target in experiment [8] is T5, DC-SIGN CRD T314A (Homo sapiens, UniProt Q9NNX6, T314A).
T5 construct: acids 253-404 of DC-SIGN; His-tag (N); made in house
T5 sequence (Q9NNX6 253-404 T314A): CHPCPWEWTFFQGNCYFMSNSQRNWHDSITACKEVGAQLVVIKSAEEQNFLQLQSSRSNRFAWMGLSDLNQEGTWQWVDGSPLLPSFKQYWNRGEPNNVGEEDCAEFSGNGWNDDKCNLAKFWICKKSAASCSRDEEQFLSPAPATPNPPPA
As to the kind of experiment: 1H-15N HSQC NMR titration (CSP fitting). The format is binding. The settings on record: Lewis X titration, three concentrations, saturation not reached (estimated). How it is done: as §18, §19, §20, §21, §22, §23, §24

Experiment [9] concerns the target T6, DC-SIGN CRD wildtype (Homo sapiens, UniProt Q9NNX6).
T6 construct: acids 253-404 of DC-SIGN; His-tag (N); made in house
T6 sequence (Q9NNX6 253-404): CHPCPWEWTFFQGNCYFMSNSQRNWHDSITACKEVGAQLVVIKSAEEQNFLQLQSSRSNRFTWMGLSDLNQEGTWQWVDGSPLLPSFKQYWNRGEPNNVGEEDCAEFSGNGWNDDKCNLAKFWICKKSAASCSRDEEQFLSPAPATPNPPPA
As to the kind of experiment: 1H-15N HSQC NMR titration (CSP fitting). The class given is binding. The procedure:
as §18, §19, §20, §21, §22, §23, §24

[10] abbreviates: Lewis X titration, three concentrations, saturation not reached (estimated).

`[Ca+2].[Cl-].[Cl-]` [CaCl2]: the EC50 in experiment [1] was 700 ± 200 µM; in experiment [2], 1000 ± 400 µM; in experiment [3], 1200 ± 300 µM; in experiment [4] (25 μM ECD), 200 µM; in experiment [5] (25 μM ECD), 600 µM; in [6] (25 μM ECD) it was 300 µM. For the same molecule, the “hill slope, CaCl2 titration” value came to 1.4 in [4], 1.7 in [5] and 2.0 in experiment [6].

As usually defined, the Kd is the equilibrium constant for the complex coming apart. Regarding `CC(=O)N[C@H]1C(O)O[C@H](CO)[C@@H](O[C@@H]2O[C@H](CO)[C@H](O)[C@H](O)[C@H]2O)[C@@H]1O[C@@H]1O[C@@H](C)[C@@H](O)[C@@H](O)[C@@H]1O` (some centres unmarked) [Lewis X, Lewis X trisaccharide], the dissociation constant Kd in experiment [7] (setting [10]) was 600 ± 200 µM; in [8] it was 1400 ± 100 µM; in experiment [9] (setting [10]) it was 1100 ± 200 µM.

With `Oc1ccccc1` [phenol], the “CSPs on addition of phenol” value in [7] (20 mM phenol, holo CRD, compared with wildtype) is on record as “drastically reduced CSPs”; in experiment [9] (20 mM phenol, holo 15N-labeled CRD, residues of cryptic pocket and upper cavity) it was “strong chemical shift perturbations”.
